# Columns and labels:
# [1] = relative bioavailability of oral formulations in rats (plasma DSB free acid); type: in vivo, Sprague Dawley rats; conditions: single oral 25 mg/kg; for Cmax: male, po
# Procedure: The following study was conducted to compare the relative bioavailability of oral formulations prepared with DSB•2NMG Form I and amorphous DSB•2NMG.
# Groups of four male Sprague Dawley rats with surgically implanted jugular cannulas were given a single oral 25 mg/kg dose of DSB•2NMG (Form I or amorphous) in one of six formulations: • Group 1: 10% hydroxypropyl-β-cyclodextrin solution of amorphous DSB•2NMG; • Group 2: 10% hydroxypropyl-β-cyclodextrin solution of DSB•2NMG Form I; • Group 3: Suspension of DSB•2NMG Form I in 0.5% carboxymethylcellulose; • Group 4: Solution of DSB•2NMG Form I in 1% ethanol/10% polyethylene glycol 400/89% water; • Group 5: Solution of DSB•2NMG Form I in 10% propylene glycol/90% water; and • Group 6: Solution of DSB•2NMG Form I in water.
# physchem = conditions: 25 °C, organic solvent or mixture, approximate solubility
# [2] = male rats, carboxymethylcellulose, ethanol/PEG 400/water, propylene glycol/water and water formulations
"area under the plasma concentration-time curve from time zero extrapolated to infinity (AUCINF) ([1]; male rats, 10% hydroxypropyl-β-cyclodextrin solution, average, 25 mg/kg)","exposure to DSB free acid among Form I formulations ([1]; male rats, 10% propylene glycol/water vehicle, FIG. 9)","AUCINF, times greater than from Form I given in hydroxypropyl-β-cyclodextrin [1, 2]","DSB free acid concentrations versus Form I given in 10% hydroxypropyl-β-cyclodextrin [1, 2]","plasma concentration profile compared to amorphous DSB•2NMG formulation ([1]; male rats, hydroxypropyl-cyclodextrin formulation, FIG. 8)","Cmax ([1]; Sprague-Dawley, rat, plasma, 25 mg/kg, solution in 1% ethanol/10% polyethylene glycol 400/water, average)","Cmax ([1]; Sprague-Dawley, rat, plasma, 25 mg/kg, solution in 10% propylene glycol/water, average)","Cmax ([1]; Sprague-Dawley, rat, plasma, 25 mg/kg, solution in water, average)","Cmax ([1]; Sprague-Dawley, rat, plasma, 25 mg/kg, suspension in 0.5% carboxymethylcellulose, average)",solubility (physchem; 1-butanol),solubility (physchem; 1-propanol),solubility (physchem; 2-butanol),solubility (physchem; 2-propanol),solubility (physchem; acetone),solubility (physchem; dimethyl formamide),solubility (physchem; ethanol),"AUC(0-inf) ([1]; Sprague-Dawley, rat, plasma, male rats, 10% hydroxypropyl-β-cyclodextrin solution, average, read-out: area under the plasma concentration-time curve from time zero extrapolated to infinity (AUCINF))",Structure (SMILES)
23.44 µg·h/mL,greatest exposure,1.5-2 times,greater,equivalent plasma concentration profiles,8490 ng/mL,10400 ng/mL,9770 ng/mL,8200 ng/mL,< 3000 µg/mL,~5000 µg/mL,< 3000 µg/mL,< 3000 µg/mL,< 3000 µg/mL,> 50000 µg/mL,~5000 µg/mL,,"C=C(C)[C@@H]1CC[C@]2(C(=O)O)CC[C@]3(C)[C@H](CC[C@@H]4[C@@]5(C)CC[C@H](OC(=O)CC(C)(C)C(=O)O)C(C)(C)[C@@H]5CC[C@]43C)[C@@H]12 [DSB•2NMG Form I, 3-O-(3′,3′-dimethylsuccinyl)betulinic acid di-N-methyl-D-glucamine]"
,,,,,,,,,,,,,,,,21500 ng·h/mL,"C=C(C)[C@@H]1CC[C@]2(C(=O)O)CC[C@]3(C)[C@H](CC[C@@H]4[C@@]5(C)CC[C@H](OC(=O)CC(C)(C)C(=O)O)C(C)(C)[C@@H]5CC[C@]43C)[C@@H]12 [amorphous DSB•2NMG, 3-O-(3′,3′-dimethylsuccinyl)betulinic acid di-N-methyl-D-glucamine]"

# From patent US7799768B2, “Polymorphs of 3-O-(3′,3′-dimethylsuccinyl)betulinic acid di-N-methyl-D-glucamine” (priority 2005, dated 2010)
